# Read-outs that look alike come from different tables or passages of the source.
# Assays:
# [1] = target: Recombinant human CSF1R kinase (Homo sapiens (Human), UniProt P07333); test: Measurement of CSF1R kinase activity at molecular level (Z-LYTE); type: biochemical; conditions: Z-LYTE Tyr 1 peptide
# Method: Invitrogen, PV3227; • Development reagent B: Invitrogen, PV3295; • Development buffer: Invitrogen. P3127; • Stopping solution: Invitrogen, P3094; • Recombinant human CSF1R kinase: Invitrogen, P[…]; • 384 well plate, black: Corning. 3575; • Envision: Perkin Elmer. 2. […] The test compound was diluted in gradient to 4-fold the reaction concentration and the concentration of DMSO was kept at 8%. […] The mixture was mixed gently with a pipette. • 4) A phosphorylated peptide substrate solution (PP solution): 0.4 μL of Z-LYTETM Tyr1 phosphorylated peptide substrate was added to 99.6 μl of 1.33× kinase buffer. • 5) ATP solution: 10 mM of ATP was diluted to 760 μM with 1.33× kinase buffer to prepare ATP solution. • 6) Development solution: Development reagent B was diluted with Development buffer at a ratio of 1:200. 3. […] 2.5 μL of 4× test compound was added to each reaction well of the 384 plate, and the corresponding volume of 8% DMSO was added to the control well. The plate was placed on ice. […] After adding the reaction components, the 384-well plate was sealed and incubated at 25-30° C. for 1 h in dark. 2) Development Reaction 5 μL of Development solution was added to each well, sealed and incubated at 25-30° C. for another 1 h in dark. 3) Reaction Stopping and Plate Reading 5 μL of stopping solution was added to each well. The Coumarin value (excitation at 400 nm, emission at 445 nm) and Fluorescein value (excitation at 400 nm, emission at 520 nm) were measured, respectively. 4. […] Coumarin emission read-out (445 nm)/Fluorescein emission read-out (520 nm); • C3 445 nm: 100% phosphorylated Coumarin emission read-out; • C3 520 nm: 100% phosphorylated Fluorescein emission read-out; • C1 445 nm: 0% phosphorylated Coumarin emission read-out; • C1 520 nm: 0% phosphorylated Fluorescein emission read-out. […] 5. IC50 values: calculated by using software XL-FitTM (version 5.3) supplied by ID Business Solutions (Guildford, UK), which is an additional software to Microsoft Excel.
# [2] = target: CSF1R phosphorylation in THP-1 cells (Homo sapiens (Human), UniProt P07333); test: Detection of CSF1R phosphorylation activity at cell level (p-CSF1R ELISA, M-CSF stimulated THP-1 cells); type: cell-based
# Method: THP-1 (ATCC), human acute monocytic leukemia cells.
# 3. Treatment of cells and preparation of lysis buffer
# 5 μL. of the diluted compound was added to the 50 μL cell culture system, the culture was cultured in a 5% CO2, 37° C. cell incubator for 60 min, 300 ng/mL of M-CSF was added to the cells, and the mixture was stimulated in the 37° C. cell incubator for 1 min, added 50 μL of cell lysis buffer, and stored in a refrigerator at −80° C.
# 100 μL/well of the p-CSF1R capture antibody diluted to 0.8 μg/mL with PBS was added to the ELISA plate, and the plate was coated on a shaker at room temperature overnight. The culture was washed with PBST, and then added blocking solution and incubated at room temperature for 2 h. The culture was washed with PBST, added 90 μL of cell lysis buffer, and incubated on a shaker at 25° C. for 2 h. The plate was washed with PBST three times, added 100 μL of anti-p-tyrosine-HRP detection antibody diluted with 0.1% PBS-BSA diluent, and incubated on a shaker at 25° C. for 2 h. The plate was washed with PBST washing liquid, added 100 μL of chromogenic substrate and incubated at room temperature for 10-20 min. The reaction was stopped by adding 50 μL of 2N H2SO4. The optical density signal (450/570 nm) of each well was detected in Labsystems Multiskan K3 or Envision.
# wherein • Drug-treated well read-out: indicating the optical density signal of a cell well with the test compound treatment. • Background read-out: indicating the optical density signal of a well without cells but with cell lysis buffer. • Cell well read-out: indicating the optical density signal of a cell well not treated with the compound.
# 6. Calculation of IC50: obtained by using XL-Fit 5.3 software, […]
# [3] = THP-1 cells, M-CSF stimulation, p-CSF1R ELISA, read-out: IC50
# CSF1R phosphorylation in THP-1 cells, sequence (P07333 20-972): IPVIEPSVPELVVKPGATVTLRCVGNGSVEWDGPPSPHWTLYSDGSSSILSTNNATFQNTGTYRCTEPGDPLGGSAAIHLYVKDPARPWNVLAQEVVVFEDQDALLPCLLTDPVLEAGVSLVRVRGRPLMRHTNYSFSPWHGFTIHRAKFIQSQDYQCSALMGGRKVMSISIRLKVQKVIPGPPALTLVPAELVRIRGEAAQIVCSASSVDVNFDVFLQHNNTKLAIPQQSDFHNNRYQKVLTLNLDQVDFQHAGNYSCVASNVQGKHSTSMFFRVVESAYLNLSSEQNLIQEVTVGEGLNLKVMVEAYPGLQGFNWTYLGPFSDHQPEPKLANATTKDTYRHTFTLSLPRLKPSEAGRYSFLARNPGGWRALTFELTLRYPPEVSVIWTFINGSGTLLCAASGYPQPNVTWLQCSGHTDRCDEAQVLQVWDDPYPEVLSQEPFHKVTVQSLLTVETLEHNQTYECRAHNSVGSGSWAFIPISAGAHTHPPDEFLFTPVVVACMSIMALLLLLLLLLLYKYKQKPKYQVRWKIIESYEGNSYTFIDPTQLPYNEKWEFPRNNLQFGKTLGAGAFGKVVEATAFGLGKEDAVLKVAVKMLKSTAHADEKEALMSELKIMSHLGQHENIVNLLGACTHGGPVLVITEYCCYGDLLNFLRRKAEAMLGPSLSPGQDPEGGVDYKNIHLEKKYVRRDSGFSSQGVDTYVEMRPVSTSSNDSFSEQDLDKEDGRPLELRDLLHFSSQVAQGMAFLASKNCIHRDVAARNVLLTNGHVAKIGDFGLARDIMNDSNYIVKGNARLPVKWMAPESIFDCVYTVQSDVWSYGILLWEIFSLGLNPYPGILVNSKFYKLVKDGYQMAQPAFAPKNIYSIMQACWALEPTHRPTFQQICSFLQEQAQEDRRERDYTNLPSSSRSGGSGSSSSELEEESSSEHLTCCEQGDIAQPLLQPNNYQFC
# Recombinant human CSF1R kinase, sequence (P07333 20-972): as above
SMILES,IC50 [1],"IC50 [2, 3]",IC50 ([2]; IC50 (μM))
COc1ccc([C@H]2COc3cc(Oc4ccnc(-c5cnn(C)c5)c4)cnc3O2)nc1 [Compound 81],10 nM,0.032 µM,
COc1cc(Oc2ccc3ncc(C)c(=O)n3c2)cnc1OCc1ccc(-n2cccn2)cc1 [Compound 23],5 nM,0.129 µM,
COc1ccc(COc2ncc(Oc3ccc4ncc(N)c(=O)n4c3)cc2C)cc1 [Compound 33],150 nM,,
COc1ccc(COc2ncc(Oc3ccc4ncc(C)c(=O)n4c3)cc2F)cc1 [Compound 20],24 nM,0.06 µM,
COc1cc(Oc2ccc3ncc(N)c(=O)n3c2)cnc1OCc1ccc(C2CC2)cc1 [Compound 22],12 nM,0.009 µM,
COc1cc(Oc2ccc3ncc(C)c(=O)n3c2)cnc1OCCc1ccccc1 [Compound 40],33 nM,0.19 µM,
COc1cc(Oc2ccnc(-c3cnn(C)c3)c2)cnc1OCc1ccc(C2CC2)cc1 [Compound 12],13 nM,0.005 µM,
COc1ccc(COc2ncc(Oc3ccc4ncc(N5CCOCC5)c(=O)n4c3)cc2OC)cc1 [Compound 31],6 nM,0.01 µM,
O=c1ccnc2ccc(Oc3cnc4c(c3)OC[C@H](c3ccc(C5CC5)cn3)O4)cn12 [Compound 71],30 nM,0.114 µM,
Cc1cnc2ccc(Oc3cnc4c(c3)OC[C@H](c3ccc(C5CC5)nc3)O4)cn2c1=O [Compound 62],4 nM,0.047 µM,
COc1cc(Oc2ccc3ncc(C)c(=O)n3c2)cnc1OCc1cccc(C(C)(C)C#N)c1 [Compound 10],44 nM,0.08 µM,
"Cn1cc(-c2cc(Oc3cnc4c(c3)OCC(c3ccc(C5CC5)cc3)O4)ccn2)cn1 (racemic) [Compound 48, (R/S)-3-(4-cyclopropylphenyl)-7-((2-(1-methyl-1H-pyrazol-4-yl)pyridin-4-yl)oxy)-2,3-dihydro-[1,4]dioxino[2,3-b]pyridine]",5 nM,0.005 µM,
COc1cc(Oc2ccc3ncc(C)c(=O)n3c2)cnc1OCc1ccc(C(C)(C)O)cc1 [Compound 27],16 nM,0.045 µM,
COc1ccc([C@H]2COc3cc(Oc4ccc5ncc(C)c(=O)n5c4)cnc3O2)nc1 [Compound 79],30 nM,0.182 µM,
COc1ccc([C@H]2COc3cc(Oc4ccc5nccc(=O)n5c4)cnc3O2)cc1 [Compound 64],10 nM,0.042 µM,
"COc1ccc(COc2ncc(Cc3ccc4ncc(C)c(=O)n4c3)cc2OC)cc1 [Compound 47, 7-((5-methoxy-6-((4-methoxybenzyl)oxy)pyridin-3-yl)methyl)-3-methyl-4H-pyrido[1,2-a]pyrimidin-4-one]",13 nM,0.012 µM,
Cc1cnc2ccc(Oc3cnc4c(c3)OC[C@H](c3ccc(C5CC5)cc3)O4)cn2c1=O [Compound 58],12 nM,0.026 µM,
COc1cc(Oc2ccc3ncc(C)c(=O)n3c2)cnc1OCc1ccc(C2CC2(F)F)cc1 (centres unmarked) [Compound 15],10 nM,0.015 µM,
COc1ccc([C@H]2COc3cc(Oc4ccnc(-c5cnn(C)c5)c4)cnc3O2)cn1 [Compound 70],8 nM,0.015 µM,
"Cn1cc(-c2cc(Oc3cnc4c(c3)O[C@H](c3ccc(C5CC5)cc3)CO4)ccn2)cn1 (single isomer, unassigned) [Compound 49, (R/S)-2-(4-cyclopropylphenyl)-7-((2-(1-methyl-1H-pyrazol-4-yl)pyridin-4-yl)oxy)-2,3-dihydro-[1,4]dioxino[2,3-b]pyridine]",23 nM,0.06 µM,

SMILES,IC50 [1],"IC50 [2, 3]",IC50 ([2]; IC50 (μM))
O=c1ccnc2ccc(Oc3cnc4c(c3)OC[C@H](c3ccc(C5CC5)nc3)O4)cn12 [Compound 60],6 nM,0.052 µM,
Cn1cc(-c2cc(Oc3cnc4c(c3)OC[C@@H](c3ccc(C5CC5)cn3)O4)ccn2)cn1 [Compound 74],5 nM,0.009 µM,
Cc1cnc2ccc(Oc3cnc4c(c3)OC[C@@H](c3ccc(C5CC5)cc3)O4)cn2c1=O [Compound 57],15 nM,0.016 µM,
"O=c1ccnc2ccc(Oc3cnc4c(c3)OCC(c3ccc(C5CC5)cc3)O4)cn12 (racemic) [Compound 55, (R/S)-7-((3-(4-cyclopropylphenyl)-2,3-dihydro-[1,4]dioxino[2,3-b]pyridin-7-yl)oxy)-4H-pyrido[1,2-a]pyrimidin-4-one]",8 nM,0.007 µM,
"COc1ccc(COc2ccc(Oc3ccc4ncc(C)c(=O)n4c3)cn2)cc1 [Compound 1, 7-((6-((4-methoxybenzyl)oxy)pyridin-3-yl)oxy)-3-methyl-4H-pyrido[1,2-a]pyrimidin-4-one]",10 nM,,0.052 µM
"Cn1cc(-c2cc(Oc3cnc4c(c3)O[C@H](c3ccc(C5CC5)cc3)CO4)ccn2)cn1 (single isomer, unassigned) [Compound 50, (R/S)-2-(4-cyclopropylphenyl)-7-((2-(1-methyl-1H-pyrazol-4-yl)pyridin-4-yl)oxy)-2,3-dihydro-[1,4]dioxino[2,3-b]pyridine]",73 nM,0.197 µM,
COc1ccccc1CCOc1ncc(Oc2ccc3ncc(C)c(=O)n3c2)cc1OC [Compound 38],24 nM,0.381 µM,
COc1cc(Oc2ccc3ncn(C)c(=O)c3c2)cnc1OCc1ccc(C2CC2)cc1 [Compound 16],22 nM,0.005 µM,
COc1ccc([C@H]2COc3cc(Oc4ccc5ncc(C)c(=O)n5c4)cnc3O2)cc1 [Compound 66],10 nM,0.056 µM,
"Cn1cc(-c2cc(Oc3cnc4c(c3)OCC(c3ccc(C5CC5)nc3)O4)ccn2)cn1 (racemic) [Compound 53, (R/S)-3-(6-cyclopropylpyridin-3-yl)-7-((2-(1-methyl-1H-pyrazol-4-yl)pyridin-4-yl)oxy)-2,3-dihydro-[1,4]dioxino[2,3-b]pyridine]",3 nM,0.019 µM,
"COc1cc(Cc2ccnc(-c3cnn(C)c3)c2)cnc1OCc1ccc(C2CC2)cc1 [Compound 46, 2-((4-cyclopropylbenzyl)oxy)-3-methoxy-5-((2-(1-methyl-1H-pyrazol-4-yl)pyridin-4-yl)methyl)pyridine]",28 nM,0.005 µM,
COc1ccc(CCOc2ncc(Oc3ccc4ncc(C)c(=O)n4c3)cc2OC)cc1 [Compound 37],33 nM,0.14 µM,
COc1cc(Oc2ccc3ncc(C)c(=O)n3c2)cnc1OCc1ccc(C(C)(C)C#N)cc1 [Compound 28],70 nM,,
Cc1cnc2ccc(Oc3ccc(OCc4ccc(F)c(Cl)c4)nc3)cn2c1=O [Compound 4],129 nM,,
Cc1cnc2ccc(Oc3ccc(OCc4ccc(F)cc4)nc3)cn2c1=O [Compound 3],81 nM,,
COc1ccc([C@H]2COc3cc(Oc4ccc5nccc(=O)n5c4)cnc3O2)nc1 [Compound 77],80 nM,,
"COc1cc(Oc2ccc3ncc(C)c(=O)n3c2)cnc1OCc1ccc(Cl)cc1 [Compound 19, 7-((6-((4-chlorobenzyl)oxy)-S-methoxypyridin-3-yl)oxy)-3-methyl-4H-pyrido[1,2-a]pyrimidin-4-one]",,0.031 µM,
COc1ccc(COc2ncc(Oc3ccc4ncc(C)c(=O)n4c3)cc2C)cc1 [Compound 34],499 nM,,
C#Cc1ccc(COc2ncc(Oc3ccc4ncc(C)c(=O)n4c3)cc2OC)cc1 [Compound 7],15 nM,,
COc1ccc(COc2ncc(Oc3ccc4ncc(C)c(=O)n4c3)cc2C#N)cc1 [Compound 30],460 nM,,
